Results published in PubChem BioAssay AID1671289.

Target: Receptor tyrosine-protein kinase erbB-2 (Homo sapiens) (UniProt P04626)
Assay: ERBB2 kinase inhibitors, dose response, biochemical, Z'-LYTE FRET, direct format, recombinant human (AID 1671289)
Conditions: Z'-LYTE FRET kinase activity

Receptor tyrosine-protein kinase erbB-2 (Homo sapiens), sequence (P04626 whole entry, looked up): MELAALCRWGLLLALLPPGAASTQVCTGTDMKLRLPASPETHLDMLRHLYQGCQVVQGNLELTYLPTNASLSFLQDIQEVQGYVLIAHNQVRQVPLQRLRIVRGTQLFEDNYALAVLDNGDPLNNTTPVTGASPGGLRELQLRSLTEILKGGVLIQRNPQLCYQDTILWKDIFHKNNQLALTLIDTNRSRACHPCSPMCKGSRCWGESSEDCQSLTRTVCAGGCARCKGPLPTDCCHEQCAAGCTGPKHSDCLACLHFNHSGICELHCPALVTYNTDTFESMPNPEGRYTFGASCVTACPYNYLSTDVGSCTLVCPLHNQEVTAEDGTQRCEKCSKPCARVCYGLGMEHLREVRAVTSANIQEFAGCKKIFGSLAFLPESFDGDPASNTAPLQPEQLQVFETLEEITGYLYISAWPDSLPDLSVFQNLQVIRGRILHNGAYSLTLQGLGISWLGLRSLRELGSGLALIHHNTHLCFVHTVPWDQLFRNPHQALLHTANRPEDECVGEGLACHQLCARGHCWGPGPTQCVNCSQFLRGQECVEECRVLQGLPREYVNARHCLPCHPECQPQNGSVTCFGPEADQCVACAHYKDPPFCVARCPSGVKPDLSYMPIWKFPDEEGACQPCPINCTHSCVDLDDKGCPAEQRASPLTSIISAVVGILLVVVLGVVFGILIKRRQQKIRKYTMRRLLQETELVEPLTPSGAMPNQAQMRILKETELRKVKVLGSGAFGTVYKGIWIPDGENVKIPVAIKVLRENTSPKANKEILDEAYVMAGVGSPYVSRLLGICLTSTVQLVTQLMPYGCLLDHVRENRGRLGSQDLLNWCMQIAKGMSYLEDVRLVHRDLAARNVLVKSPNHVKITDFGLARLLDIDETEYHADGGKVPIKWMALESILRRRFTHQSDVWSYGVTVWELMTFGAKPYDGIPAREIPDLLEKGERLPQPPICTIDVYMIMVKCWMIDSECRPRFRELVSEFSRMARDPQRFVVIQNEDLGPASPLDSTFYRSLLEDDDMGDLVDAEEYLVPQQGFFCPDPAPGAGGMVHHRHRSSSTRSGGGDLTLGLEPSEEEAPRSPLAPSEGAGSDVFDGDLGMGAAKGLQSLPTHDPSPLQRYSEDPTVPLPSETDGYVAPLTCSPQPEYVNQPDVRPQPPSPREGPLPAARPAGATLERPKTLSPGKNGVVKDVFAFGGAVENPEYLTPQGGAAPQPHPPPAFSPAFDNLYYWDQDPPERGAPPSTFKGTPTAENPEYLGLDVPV

COc1cc2ncnc(Nc3cccc(Cl)c3)c2cc1OC
IC50: 46.5 nM
